24 compounds from patent publication US20230399312A1, “SUBSTITUTED PYRIMIDINES AND METHODS OF USE” (THERAVANCE BIOPHARMA R&D IP, LLC, priority 2020, published 2023) can be followed below.

The term pKi denotes the negative decadic logarithm of the Ki, by convention in mol/L.

pKi: −log10 of the molar value. Some results are limits rather than exact numbers.

The target in assay [1] is T1, recombinant human ALK5 (TGF-βR1) protein (Homo sapiens, UniProt P36897).
T1 construct: purchased Life Technologies PR9075A
T1 sequence (P36897 34-503): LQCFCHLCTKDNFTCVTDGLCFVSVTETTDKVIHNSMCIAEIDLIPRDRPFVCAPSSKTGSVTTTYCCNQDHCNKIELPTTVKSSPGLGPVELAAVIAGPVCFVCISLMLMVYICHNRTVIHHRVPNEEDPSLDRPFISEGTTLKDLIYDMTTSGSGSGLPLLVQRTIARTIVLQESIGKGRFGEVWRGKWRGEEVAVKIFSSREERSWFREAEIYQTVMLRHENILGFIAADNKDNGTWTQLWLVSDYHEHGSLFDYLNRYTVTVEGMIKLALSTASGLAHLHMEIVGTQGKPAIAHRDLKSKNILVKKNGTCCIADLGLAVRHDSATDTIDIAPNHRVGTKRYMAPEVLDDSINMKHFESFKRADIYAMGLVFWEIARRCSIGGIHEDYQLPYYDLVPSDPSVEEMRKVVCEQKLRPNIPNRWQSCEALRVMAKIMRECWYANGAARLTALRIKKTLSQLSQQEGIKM
Kind of assay: Biochemical ALK5 (TGF-βR1) assay to measure pKi (LANCE Ultra ULight kinase assay). The conditions noted are these: apparent pKi, converted from pIC50 by Cheng-Prusoff. The method, boiled down:
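Cmpd + enzyme, 60 min RT; ATP from 125 μM (5×) stock, 60 min 37 °C; stop 12 mM EDTA/Eu anti-pThr1342 Topo2α Ab (pH 7.0 buffer); TR-FRET 665 nm. DMSO = max, SD-208 = min signal. 4-PL pIC50 → pKi (Cheng-Prusoff).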
Background: TR-FRET usually uses a lanthanide donor and a delayed reading to cut background.

Assay [2] relates to TGF-β-stimulated SMAD3 phosphorylation in BEAS-2B cells. The assay is described as follows: Cellular ALK5 potency assay, inhibition of TGF-β stimulated pSMAD3 formation in BEAS-2B cells. Format: cell-based. The note with it: Homo sapiens, pSMAD3, TGF-β 10 ng/mL, read-out: BEAS2B pIC50 (converted). A digest of the protocol: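 Human lung epithelial BEAS-2B cells were pre-treated with compound for 1 h at 37 °C, then stimulated with TGF-β (final 10 ng/mL) for 30 min before lysis. pSMAD3 was quantified by AlphaLISA and pIC50 derived from dose-dependent signal change versus TGF-β-stimulated untreated cells.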

As to `Cc1cccc(-c2nccc(Nc3ccnc(Nc4cnc(N5CCNCC5)nc4)n3)n2)n1` [Compound 86, N4-(2-(6-methylpyridin-2-yl)pyrimidin-4-yl)-N2-(2-(piperazin-1-yl)pyrimidin-5-yl)pyrimidine-2,4-diamine], the negative logarithm of the Ki (pKi) in assay [1] is 8.50 to 9.40. In assay [2], the IC50 was 200 to 1260 nM.
As for `Cc1cccc(-c2nccc(Nc3ccnc(Nc4cccc(S(=O)(=O)N(C)C5CCNCC5)c4)n3)n2)n1` [Compound 87, N-methyl-3-[[4-[[2-(6-methyl-2-pyridyl)pyrimidin-4-yl]amino]pyrimidin-2-yl]amino]-N-(4-piperidyl)benzenesulfonamide], in assay [1], the pKi was 7.50 to 8.40. For the same compound, in assay [2], the IC50 was 200 to 1260 nM.
Regarding `Cc1cccc(-c2nccc(Nc3ccnc(Nc4ccc(CN5CC(C(=O)OCC6CNC6)C5)cc4)n3)n2)n1` [Compound 88, azetidin-3-ylmethyl 1-(4-((4-((2-(6-methylpyridin-2-yl)pyrimidin-4-yl)amino)pyrimidin-2-yl)amino)benzyl)azetidine-3-carboxylate], the pKi in assay [1] is 9.50 to 10.40. Besides, the IC50 in assay [2] is 25.1 to 158 nM.
For the compound `Cc1cccc(-c2nccc(Nc3ccnc(Nc4csc(C(=O)NCC5CNC5)c4)n3)n2)n1` [Compound 89, N-(azetidin-3-ylmethyl)-4-[[4-[[2-(6-methyl-2-pyridyl)pyrimidin-4-yl]amino]pyrimidin-2-yl]amino]thiophene-2-carboxamide], the pKi in assay [1] was no less than 10.50. Also, in assay [2], the IC50 was no more than 20 nM.
With `CNC1CCN(c2ccc(Nc3nccc(Nc4ccnc(-c5ccccc5F)n4)n3)cc2)CC1` [Compound 90, N4-[2-(2-fluorophenyl)pyrimidin-4-yl]-N2-[4-[4-(methylamino)-1-piperidyl]phenyl]pyrimidine-2,4-diamine], the pKi in assay [1] was 8.50 to 9.40. Besides, in assay [2], the IC50 was 25.1 to 158 nM.
On to `Cc1cccc(-c2nccc(Nc3ccnc(Nc4ccc(C(=O)NCC5CNC5)cc4)n3)n2)n1` [Compound 92, N-(azetidin-3-ylmethyl)-4-[[4-[[2-(6-methyl-2-pyridyl)pyrimidin-4-yl]amino]pyrimidin-2-yl]amino]benzamide], for which, in assay [1], the negative logarithm of the Ki (pKi) was 9.50 to 10.40. Also, in assay [2], the IC50 was no more than 20 nM.
With `Cc1cccc(-c2nccc(Nc3ccnc(Nc4ccc(NS(=O)(=O)N5CCNCC5)cc4)n3)n2)n1` [Compound 93, N-[4-[[4-[[2-(6-methyl-2-pyridyl)pyrimidin-4-yl]amino]pyrimidin-2-yl]amino]phenyl]piperazine-1-sulfonamide], the pKi in assay [1] was 9.50 to 10.40. The IC50 in assay [2] was 200 to 1260 nM.
Regarding `Cc1cccc(-c2nccc(Nc3ccnc(Nc4csc(CN5CCNCC5)c4)n3)n2)n1` [Compound 94, N4-(2-(6-methylpyridin-2-yl)pyrimidin-4-yl)-N2-(5-(piperazin-1-ylmethyl)thiophen-3-yl)pyrimidine-2,4-diamine], the pKi in assay [1] was no less than 10.50. Moreover, in assay [2], the IC50 is no more than 20 nM.
Turning to `Cc1cccc(-c2nccc(Nc3ccnc(Nc4ccc(N5CCNCC5)c(CC(=O)O)c4)n3)n2)n1` [Compound 95, 2-[5-[[4-[[2-(6-methyl-2-pyridyl)pyrimidin-4-yl]amino]pyrimidin-2-yl]amino]-2-piperazin-1-yl-phenyl]acetic acid], in assay [1], the negative logarithm of the Ki (pKi) is 9.50 to 10.40. Also, in assay [2], the IC50 is 200 to 1260 nM.
Take `Cc1cccc(-c2nccc(Nc3ccnc(Nc4csc(C(=O)OCC5CNC5)c4)n3)n2)n1` [Compound 96, azetidin-3-ylmethyl 4-((4-((2-(6-methylpyridin-2-yl)pyrimidin-4-yl)amino)pyrimidin-2-yl)amino)thiophene-2-carboxylate]: the pKi in assay [1] is 9.50 to 10.40. Besides, the IC50 in assay [2] was 25.1 to 158 nM.
For the compound `Cc1cccc(-c2nccc(Nc3ccnc(Nc4ccc(CN5CC(C(=O)O[C@H]6CCN(C)C6)C5)cc4)n3)n2)n1` [Compound 97, [(3S)-1-methylpyrrolidin-3-yl] 1-[[4-[[4-[[2-(6-methyl-2-pyridyl)pyrimidin-4-yl]amino]pyrimidin-2-yl]amino]phenyl]methyl] azetidine-3-carboxylate], in assay [1], the pKi is 9.50 to 10.40. In addition, in assay [2], the IC50 was 25.1 to 158 nM.
Regarding `Cc1cccc(-c2nccc(Nc3ccnc(Nc4ccc(N5CC(N)C5)cc4)n3)n2)n1` [Compound 98, N2-[4-(3-aminoazetidin-1-yl)phenyl]-N4-[2-(6-methyl-2-pyridyl)pyrimidin-4-yl]pyrimidine-2,4-diamine], in assay [1], the pKi is 9.50 to 10.40. In addition, the IC50 in assay [2] was 25.1 to 158 nM.
As to `Cc1cccc(-c2nccc(Nc3ccnc(Nc4ccc(CN5CC(C)(CO)C5)cc4)n3)n2)n1` [Compound 99, [3-methyl-1-[[4-[[4-[[2-(6-methyl-2-pyridyl)pyrimidin-4-yl]amino]pyrimidin-2-yl]amino]phenyl]methyl]azetidin-3-yl]methanol], in assay [1], the pKi was no less than 10.50. In addition, the IC50 in assay [2] was 25.1 to 158 nM.
In the same order, the values of `Cc1cccc(-c2nccc(Nc3ccnc(Nc4ccc(C(=O)OCC5CNC5)s4)n3)n2)n1` [Compound 100, azetidin-3-ylmethyl 5-[[4-[[2-(6-methyl-2-pyridyl)pyrimidin-4-yl]amino]pyrimidin-2-yl]amino]thiophene-2-carboxylate] are 9.50 to 10.40 and 25.1 to 158 nM.
Consider `Cc1cccc(-c2nccc(Nc3ccnc(Nc4ccc(N5CCC(C(=O)OC6CCNC6)CC5)cc4)n3)n2)n1` (stereo not drawn) [Compound 101, pyrrolidin-3-yl 1-[4-[[4-[[2-(6-methyl-2-pyridyl)pyrimidin-4-yl]amino]pyrimidin-2-yl]amino]phenyl]piperidine-4-carboxylate], for which, in assay [1], the pKi was 9.50 to 10.40. For the same compound, the IC50 in assay [2] was 25.1 to 158 nM.
Take `Cc1cccc(-c2nccc(Nc3ccnc(Nc4ccc(N5CCN(CC6CCNC6)CC5)cc4)n3)n2)n1` (stereo not drawn) [Compound 102, N4-[2-(6-methyl-2-pyridyl)pyrimidin-4-yl]-N2-[4-[4-(pyrrolidin-3-ylmethyl)piperazin-1-yl]phenyl]pyrimidine-2,4-diamine]: the pKi in assay [1] was 9.50 to 10.40. In addition, the IC50 in assay [2] is 25.1 to 158 nM.
Take `Cc1cccc(-c2nccc(Nc3ccnc(Nc4ccc(CN5CCSCC5)cc4)n3)n2)n1` [Compound 104, N4-[2-(6-methyl-2-pyridyl)pyrimidin-4-yl]-N2-[4-(thiomorpholinomethyl)phenyl] pyrimidine-2,4-diamine]: the pKi in assay [1] is 9.50 to 10.40. For the same compound, the IC50 in assay [2] is 25.1 to 158 nM.
In the case of `Cc1cccc(-c2nccc(Nc3ccnc(Nc4ccc(NS(=O)(=O)CC5CCCNC5)cc4)n3)n2)n1` (stereo not drawn) [Compound 106, N-(4-((4-((2-(6-methylpyridin-2-yl)pyrimidin-4-yl)amino)pyrimidin-2-yl)amino)phenyl)-1-(piperidin-3-yl)methanesulfonamide], in assay [1], the pKi was 9.50 to 10.40. In assay [2], the IC50 is 25.1 to 158 nM.
As for `Cc1cccc(-c2nccc(Nc3ccnc(Nc4ccc(S(=O)(=O)N5CCN(C(=O)NC(C)C)CC5)cc4)n3)n2)n1` [Compound 107, N-isopropyl-4-[4-[[4-[[2-(6-methyl-2-pyridyl)pyrimidin-4-yl]amino]pyrimidin-2-yl]amino]phenyl]sulfonyl-piperazine-1-carboxamide], in assay [1], the negative-log Ki (pKi) was 8.50 to 9.40. Moreover, the IC50 in assay [2] was 200 to 1260 nM.
Take `Cc1cccc(-c2nccc(Nc3ccnc(Nc4ccc(S(N)(=O)=O)cc4)n3)n2)n1` [Compound 108, 4-((4-((2-(6-methylpyridin-2-yl)pyrimidin-4-yl)amino)pyrimidin-2-yl)amino)benzenesulfonamide]: in assay [1], the negative logarithm of the Ki (pKi) was 9.50 to 10.40. In assay [2], the IC50 was 25.1 to 158 nM.
For `Cc1cccc(-c2nccc(Nc3ccnc(Nc4ccc(CN5CCN(C(C)(C)C)CC5)cc4)n3)n2)n1` [Compound 109, N2-[4-[(4-tert-butylpiperazin-1-yl)methyl]phenyl]-N4-[2-(6-methyl-2-pyridyl)pyrimidin-4-yl]pyrimidine-2,4-diamine] the same measures were 9.50 to 10.40 and 25.1 to 158 nM.
In the case of `Cc1cccc(-c2nccc(Nc3ccnc(Nc4ccc(NC(=O)N5CCN(C(C)C)CC5)cc4)n3)n2)n1` [Compound 110, 4-isopropyl-N-[4-[[4-[[2-(6-methyl-2-pyridyl)pyrimidin-4-yl]amino]pyrimidin-2-yl]amino]phenyl]piperazine-1-carboxamide], the pKi in assay [1] was 9.50 to 10.40. Also, in assay [2], the IC50 was 25.1 to 158 nM.
In the same order, the values of `Cc1cccc(-c2nccc(Nc3ccnc(Nc4ccc(F)c(CN5CCNCC5)c4)n3)n2)n1` [Compound 111, N2-[4-fluoro-3-(piperazin-1-ylmethyl)phenyl]-N4-[2-(6-methyl-2-pyridyl)pyrimidin-4-yl]pyrimidine-2,4-diamine] are 9.50 to 10.40 and 25.1 to 158 nM.
For the compound `Cc1cccc(-c2nccc(Nc3ccnc(Nc4ccc(CN5CCCC(C(=O)N6CCNCC6)C5)cc4)n3)n2)n1` (stereo not drawn) [Compound 112, [1-[[4-[[4-[[2-(6-methyl-2-pyridyl)pyrimidin-4-yl]amino]pyrimidin-2-yl]amino]phenyl]methyl]-3-piperidyl]-piperazin-1-yl-methanone], the negative-log Ki (pKi) in assay [1] was 9.50 to 10.40. In addition, the IC50 in assay [2] was 25.1 to 158 nM.
